Data on 15 molecules can be found in PubChem BioAssay (NCI).

Some test systems named below: OVCAR-5 ovarian; HOP-62 NSCLC; DU-145 prostate; 786-0 renal; HOP-92 NSCLC; K-562 leukemia; M14 melanoma; ACHN renal; RXF 393 renal; HT29 colon.
What all share (assay): NCI tumour cell line growth inhibition, 48 h

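Tested at 5 concentrations; 48 h exposure; 96-well plates; endpoints linearly interpolated, else capped at highest concentration. GI50 = concentration required for 50% inhibition of growth. TGI: total growth inhibition.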

Turning to `CC(C)(C)OC(=O)Nc1cc(-c2ccccc2)co1`, the TGI in the assay on OVCAR-5 ovarian is greater than 100 µM; in the assay with HOP-62 NSCLC, greater than 100 µM; with DU-145 prostate, greater than 100 µM; in the assay with 786-0 renal, greater than 100 µM; in the assay with HOP-92 NSCLC, 86.8 µM; with K-562 leukemia, greater than 100 µM. For the same molecule, the TGI with M14 melanoma and in the assay with ACHN renal was greater than 100 µM in each case.
With `Nc1nc(N)c2nc(-c3ccco3)cnc2n1`, the TGI in the assay on RXF 393 renal, with HT29 colon, in the assay with OVCAR-5 ovarian, in the assay on HOP-62 NSCLC, in the assay with 786-0 renal and with HOP-92 NSCLC was greater than 100 µM each time. Further, the TGI in the assay on K-562 leukemia, with M14 melanoma and with ACHN renal was greater than 100 µM each time.
For the molecule `O=C1CCCCC[C@]12SC[C@H]1CON=C12`, the TGI in the assay on RXF 393 renal is 77.1 µM; with HT29 colon, greater than 100 µM; in the assay with OVCAR-5 ovarian, greater than 100 µM; in the assay on DU-145 prostate, greater than 100 µM; with 786-0 renal, greater than 100 µM; in the assay with HOP-92 NSCLC it was 50.2 µM. The TGI in the assay with K-562 leukemia is greater than 100 µM; with M14 melanoma, 62 µM; with ACHN renal it was greater than 100 µM.
For `CCOC(=O)c1c(C)[nH]c(/C=C2\N=C(c3ccc[nH]3)C=C2OC)c1C`, the GI50 with HT29 colon was less than 0.01 µM; in the assay with OVCAR-5 ovarian, 0.0404 µM; in the assay with HOP-62 NSCLC it was 0.0406 µM; with DU-145 prostate, 0.0372 µM; in the assay with HOP-92 NSCLC, 0.0323 µM; in the assay on K-562 leukemia it was 0.0504 µM. In addition, the GI50 with ACHN renal is 0.0321 µM. The TGI in the assay with HT29 colon was determined as 1.19 µM; in the assay with OVCAR-5 ovarian it was 1.51 µM; in the assay on HOP-62 NSCLC, 1.17 µM; in the assay on DU-145 prostate it was 1.6 µM; in the assay on HOP-92 NSCLC it was 0.0792 µM; with K-562 leukemia, 1.53 µM. The molecule further gave a TGI in the assay with ACHN renal of 1.29 µM.
`Cn1c2ccccc2n2c(=O)c3cccnc3c(C#N)c12`: the TGI in the assay on RXF 393 renal, in the assay on HT29 colon, with OVCAR-5 ovarian, with HOP-62 NSCLC, in the assay with DU-145 prostate and with 786-0 renal was greater than 100 µM each time. Further, the TGI with HOP-92 NSCLC and in the assay with ACHN renal was greater than 100 µM in each case.
As to `CC1(C)C[C@H](O)[C@H](O)[C@]23C(=O)O[C@H](O)[C@H]2C(C=O)=CC[C@@H]13`, the TGI in the assay on RXF 393 renal, in the assay with HT29 colon, with HOP-62 NSCLC, in the assay on DU-145 prostate, in the assay on 786-0 renal and in the assay with K-562 leukemia was greater than 100 µM each time. The same molecule yielded a TGI with ACHN renal greater than 100 µM.
`CCOC(=O)c1cc(=O)oc2c1N(C)c1ncccc1N2`: the TGI in the assay with RXF 393 renal, in the assay on OVCAR-5 ovarian, with HOP-62 NSCLC, with DU-145 prostate, in the assay with 786-0 renal and in the assay on K-562 leukemia was greater than 100 µM throughout. Besides, the TGI in the assay with M14 melanoma and in the assay with ACHN renal was greater than 100 µM each time.
For `COC(=O)c1ccc(CCc2cc(O)c(Br)cc2O)cc1`, the TGI with RXF 393 renal worked out at 32.9 µM; in the assay with HT29 colon, 32.8 µM; in the assay with OVCAR-5 ovarian it was 33.8 µM; with HOP-62 NSCLC, 32.2 µM; in the assay on DU-145 prostate, 27.5 µM; in the assay on 786-0 renal, 27.5 µM. For the same molecule, the TGI in the assay with HOP-92 NSCLC was 28.2 µM; in the assay on M14 melanoma, 29 µM; in the assay with ACHN renal, 25.9 µM.
Take `COc1ccc2c(c1)CCCN1CCc3cc(OC)c(OC)cc3C21` (stereo unspecified): the TGI in the assay with HT29 colon, with OVCAR-5 ovarian, in the assay with HOP-62 NSCLC, in the assay on DU-145 prostate, in the assay with 786-0 renal and with K-562 leukemia was greater than 100 µM throughout. The TGI in the assay with M14 melanoma and with ACHN renal was greater than 100 µM each time.
Turning to `OCCN=C1c2ccccc2C2C(c3ccccc31)C1c3ccccc3C(=NCCO)c3ccccc3C21` (stereo unspecified), the TGI with RXF 393 renal is 51.8 µM; in the assay on HT29 colon, 34.8 µM; in the assay with OVCAR-5 ovarian, 60.7 µM; in the assay with HOP-62 NSCLC, 39.4 µM; with DU-145 prostate, 54.3 µM; with 786-0 renal it was 47.2 µM. Moreover, the values for the TGI with K-562 leukemia, in the assay on M14 melanoma and with ACHN renal were 40.2 µM, 42.3 µM and 76.9 µM, respectively.
For the molecule `O=c1c(-c2ccccc2Cl)coc2cc(F)ccc12`, the TGI in the assay on RXF 393 renal was greater than 100 µM; in the assay on HT29 colon it was greater than 100 µM; in the assay with OVCAR-5 ovarian it was greater than 100 µM; with HOP-62 NSCLC, 62.2 µM; with DU-145 prostate, 83.9 µM; in the assay on 786-0 renal, greater than 100 µM. In addition, the TGI in the assay on HOP-92 NSCLC was 87.1 µM; with M14 melanoma, 55.6 µM; in the assay with ACHN renal it was greater than 100 µM.
On to `CC(=O)c1c(-c2ccccc2)c(-c2ccc(OCCN(C)C)cc2)n2ccccc12`, for which the TGI in the assay on HT29 colon was 13.6 µM; with OVCAR-5 ovarian it was greater than 100 µM; with DU-145 prostate, 31.8 µM; with 786-0 renal, 32.2 µM; in the assay on HOP-92 NSCLC it was 23.1 µM; in the assay with K-562 leukemia, greater than 100 µM. The TGI with M14 melanoma was 30.8 µM; in the assay with ACHN renal, 29.2 µM.
Regarding `O=C(NCCCCNCCCNC(=O)c1cc(-c2ccccc2)nc2ccccc12)c1cc(-c2ccccc2)nc2ccccc12`, the TGI is 3.97 µM with RXF 393 renal; 3.1 µM in the assay with HT29 colon; 3.02 µM with HOP-62 NSCLC; 3.8 µM in the assay on DU-145 prostate; 3.03 µM with 786-0 renal; 3.01 µM in the assay on HOP-92 NSCLC. In the assay with ACHN renal, this molecule had a TGI of 3.3 µM.
Consider `S=C(c1c[nH]c2ccccc12)N1CCN(c2ccccc2)CC1`, for which the TGI with RXF 393 renal, with HT29 colon, in the assay with OVCAR-5 ovarian, in the assay on HOP-62 NSCLC, in the assay on DU-145 prostate and in the assay with 786-0 renal was greater than 100 µM each time. Besides, the TGI with K-562 leukemia, in the assay on M14 melanoma and with ACHN renal was greater than 100 µM in each case.
With `CSc1nncc2[nH]cnc12`, the TGI with RXF 393 renal, with HT29 colon, in the assay on OVCAR-5 ovarian, with HOP-62 NSCLC, in the assay with DU-145 prostate and in the assay on 786-0 renal was greater than 100 µM throughout. Moreover, the TGI in the assay with K-562 leukemia, in the assay on M14 melanoma and with ACHN renal was greater than 100 µM throughout.
